Data reported in publication PMC9386499, “Integrated regulation of PKA by fast and slow neurotransmission in the nucleus accumbens controls plasticity and stress responses” (The Journal of Biological Chemistry, 2022).
No end group written: not given here.

Columns and labels:
[1] = test system: cortico-ventral striatal synapses (NAc); experiment: Cortico-ventral striatal field recordings (fEPSP, LTP, I/O, PPR); type: cell-based, rat; conditions: slices
Protocol: Adult rats were anaesthetized by isoflurane (Piramal Healthcare), and brains were placed in ice-cold sucrose saline solution (4 °C) containing (in mM): 87 NaCl, 75 Sucrose, 2.5 KCl, 1.25 NaH2PO4, 7 MgCl2, 0.5 CaCl2, 25 NaHCO3, and 10 glucose (pH 7.4; saturated with […]). Parasagittal vibratome slices (350 μ thick) containing prefrontal cortex and NAc core were transferred into saline solution containing 125 NaCl, 2.5 KCl, 1.25 NaH2PO4, 1.3 MgCl2, 2 CaCl2, 25 NaHCO3, and 25 glucose (pH 7.4; saturated with […]) and maintained for 20 min at 30 °C, then transferred to room temperature (22–25 °C) and allowed 1 h recovery. […]
Extracellular recordings: fEPSPs were obtained at 25 °C in the presence of the GABAA antagonist (SR95531, Gabazine, 2 μM) and were evoked by square current pulses (0.2 ms) at 0.033 Hz with a bipolar stimulation electrode (FHC) placed at the border of corpus callosum separated by ∼300 to 500 μ from the recording electrode. […] The paired pulse ratio (PPR) paradigm was applied using different inter-stimulus intervals and PPR changes were measured as PPR = second fEPSP amplitude/first fEPSP amplitude. After recording stable baseline for at least 10 min, LTP was induced by HFS (4 trains, 100 Hz, 1 s duration, separated by 20 s). fEPSP amplitude was monitored for at least 50 min after HFS to evaluate LTP. […]

[2] = test system: PKA; experiment: PKA inhibition by dephospho- vs. phospho-T69 RIIβ; type: biochemical; conditions: in vitro, n=4
Protocol: (§1) Rat recombinant RIIβ was derived as a C-terminal 6XHis fusion by Ni-NTA affinity purification using standard pET vector methods (Novagen). RIIβ was phosphorylated in vitro by Cdk5 or PKA using standard conditions ([55]). Cdk5/p25 was from Millipore, and PKA was from NEB. 32P incorporation was quantitated by PhosphorImager analysis. All kinetic analyses were conducted under empirically defined linear conditions. PKA activity was measured by phosphorylation of recombinant inhibitor-1 ([56]) or DARPP-32 ([14]). For phosphorylation site identification, preparatively phosphorylated RIIβ was subjected to nano-liquid chromatography tandem mass spectrometry as previously described ([57]). Digests were redissolved in 0.1% trifluoracetic acid and loaded onto a ZipTip with C18 resin (Millipore) for purification. Analysis was conducted using nanoelectrospray-QSTAR Pulsar I quadrupole time-of-flight tandem mass spectrometry (MDS Proteomics). Structural model of AKAP/RIIβ dimer interaction was based on published data of AKAP (PDB: 2HWN) ([24]) and RIIβ (PDB: 1CX4) ([58]).

[3] = test system: PKA; experiment: PKA inhibition curves for WT versus S114D RIIβ (in vitro); type: biochemical; conditions: means ± S.E.M., n = 3
Protocol: as §1

[4] = test system: Cdk5; experiment: In vitro phosphorylation of RIIβ by Cdk5 (stoichiometry); type: biochemical; conditions: saturating conditions, 32P incorporation
Protocol: as §1

[5] = test system: D1R neurons (NAc); experiment: Whole-cell patch-clamp recordings of D1R-expressing neurons (EPSP, LTP, AMPA/NMDA ratio); type: cell-based, mouse; conditions: NBQX 10 μM after APV 20 μM
From the text: For whole-cell recordings, Drd2-EGFP FVB mice were deeply anesthetized and transcardially perfused with ice-cold cutting artificial cerebrospinal fluid containing (in mM): 87 NaCl, 2.5 KCl, 0.5 CaCl2, 7 MgCl2, 1.25 NaH2PO4, 25 NaHCO3, 25 glucose, and 75 sucrose, bubbled with 95% O2/5% CO2. Parasagittal slices were cut transversely at 300 μm using a vibrating blade microtome (VT1200S, Leica Microsystems). Slices were transferred to normal saline solution containing (in mM): 119 NaCl, 2.5 KCl, 2.5 CaCl2, 1.3 MgCl2, 1.3 NaH2PO4, 26 NaHCO3, and 20 glucose at 32 °C for 30 min and then allowed to recover for 1 h at room temperature before recordings. Individual slices were transferred to a submerged chamber mounted on a fixed-stage upright microscope (Zeiss Axioskop FS) and continuously perfused at 30 °C with normal saline solution containing (in μM): 0 MgCl2, 50 picrotoxin, and 10 glycine. GFP-negative D1 cells were visualized by infrared differential interference contrast microscopy with a water-immersion 63X objective (0.9 NA, Zeiss). Current clamp recordings were performed with unpolished pipettes containing (in mM): 140 K-gluconate, 5 KCl, 2 MgCl2, 10 Hepes, 4 Mg-ATP, 0.3 Na-GTP, 10 Na2-creatine phosphate, 0.2 Na-EGTA, 290 to 300 mOsm, pH 7.3 (final resistance, 3-4MΩ). LTP of EPSPs was induced by HFS in control and RIIβ siP-treated D1 cells (at −70 mV). […]

[6] = test system: rats; experiment: Forced swim test (FST) after intra-accumbens infusion; type: in vivo, rat; conditions: ketamine 2 µg in 1 µl, subanesthetic, bilateral intra-accumbal
Protocol: Rats were anesthetized with isoflurane and placed in a stereotaxic frame (Kopf Instruments). Bilateral cannulas (3 mm center-to-center distance, cut 8 mm below pedestal, Plastics One) were placed in NAc core (anterior-posterior to bregma +1.5 mm, medial/lateral ±1.5 mm, depth −6.8 mm). Peptides were bilaterally infused 1 week later in awake and mobile animals. Injection volume was 1 μl of peptide (100 μM in PBS, 10% DMSO, per cerebral hemisphere). Animals were allowed to recover for 1 h prior to behavioral testing. Accuracy was confirmed by infusion of methylene blue dye or direct visualization of cannula tracts postbehavioral testing.
The Porsolt FST was conducted as described previously ([64]). Briefly, one-trial forced swim was used for acute stress. Nonsurgerized rats underwent an 8 min swim in an 8-gallon transparent water filled cylinder at 24 to 25 °C. Animals recovered in their home cages for 1 h prior to brain dissection. The NAc was then microdissected for immunoblotting. […] They were then placed in a locomotor chamber, and locomotor activity was monitored for 30 min in circular donut-shaped locomotor chambers in the dark with a computer-monitored infrared photobeam system (MED-PC, Med Associates). […] The last 6 min of the test were scored for latency to immobility and time immobile, with immobility defined as the time animals spent completely motionless.

[7] = test system: phospho-Ser114 RIIβ; experiment: Slice pharmacology, immunoblot of phospho-Ser114 RIIβ; type: cell-based, rat; conditions: striatal slices, NMDA 50 μM, 5 min; *p < 0.05, n = 4
Protocol: (§2) Slice pharmacology was conducted as previously described ([62]). Briefly, striatum was microdissected from 350 μ coronal rat brain slices, equilibrated for 1 h, 30 °C in Kreb’s buffer with 10 μg/ml adenosine deaminase (Roche). […] Briefly, conditions included low Mg^2+ (0.5 mM) and a 30 min tissue recovery in drug-free buffer prior to harvest. Tissue was snap-frozen on dry ice. Immunoblotting was as previously described ([63]) and analyzed using Image J software (NIH). Data from immunoblots with phosphorylation-specific antibodies were normalized to total protein. Antibodies used included those for PKA regulatory subunits (BD Biosciences Cat# 610626, RRID: AB_397958; BD Biosciences Cat# 610609 RRID:AB_397943; BD Biosciences Cat# 612242 RRID:AB_399565), phospho-S114 RIIβ (BD Biosciences Cat# 612550 RRID:AB_399845), and NMDAR1 (BD Biosciences Cat# 556308 RRID:AB_396353), phospho-S845 GluA1 (PhosphoSolutions Cat# p1160-845 RRID:AB_2492128) and phospho-T34 DARPP-32 (PhosphoSolutions Cat# p1025-34 RRID:AB_2492068), and total GluA1 (Millipore Cat# 05-855R RRID:AB_1587070). Total DARPP-32 antibody was from H. Hemmings (Weill Cornell Medical College).

[8] = test system: phospho-Thr69 RIIβ; experiment: Slice pharmacology, immunoblot of phospho-Thr69 RIIβ; type: cell-based, rat
Protocol: as §2

[9] = target: T1, Cdk5-dependent phosphorylation of RIIβ (Homo sapiens, UniProt Q00535); experiment: Inhibition of Cdk5-dependent phosphorylation of RIIβ in vitro by siP; type: biochemical; conditions: means ± S.E.M.
T1 construct: purchased Millipore
Protocol: as §1

T1 sequence (Q00535 whole entry): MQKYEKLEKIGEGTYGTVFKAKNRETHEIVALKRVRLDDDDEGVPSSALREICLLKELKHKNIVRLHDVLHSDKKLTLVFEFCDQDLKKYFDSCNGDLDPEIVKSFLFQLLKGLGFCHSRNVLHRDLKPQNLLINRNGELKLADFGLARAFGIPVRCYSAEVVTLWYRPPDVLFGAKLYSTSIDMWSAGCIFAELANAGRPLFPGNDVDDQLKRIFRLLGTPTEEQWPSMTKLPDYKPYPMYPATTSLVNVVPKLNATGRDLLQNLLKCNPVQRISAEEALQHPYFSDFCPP
T1 sequence (Q15078 99-307 partner limits assumed): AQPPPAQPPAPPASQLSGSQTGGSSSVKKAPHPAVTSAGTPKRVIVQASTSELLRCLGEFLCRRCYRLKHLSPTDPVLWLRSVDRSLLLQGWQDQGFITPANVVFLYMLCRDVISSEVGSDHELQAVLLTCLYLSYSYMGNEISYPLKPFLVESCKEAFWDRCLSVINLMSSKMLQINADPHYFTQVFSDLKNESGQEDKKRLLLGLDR

## Oc1cc2c(c(Cl)c1O)CCNCC2c1ccccc1 (centres unmarked) [SKF81297]
[1]; SKF81297 2 µM, 15 min bath application, #p < 0.05 control vs SKF, n = 7
  LTP (HFS-induced), D1 agonist: enhanced

## Thr69 RIIβ: RIIβ phosphorylated at Thr69 by Cdk5
[2]
  effect of Thr69 phosphorylation on inhibition of PKA catalytic activity by RIIβ: did not alter the inhibition of PKA catalytic activity

## RIIβ: Rat recombinant RIIβ, C-terminal 6XHis fusion; PKA regulatory subunit
[3]
  IC50: 0.0015 ± 0.0003 µM
[4]
  maximal stoichiometry of phosphorylation by Cdk5: 0.6 mol PO4/mol of substrate

## NS(=O)(=O)c1cccc2c1c([N+](=O)[O-])cc1nc(O)c(O)nc12 [NBQX]
[5]
  effect on EPSP responses, D1R neurons: ablated EPSP responses

## CNC1(c2ccccc2Cl)CCCCC1=O (centres unmarked) [ketamine]
[6]
  RIIβ siP effects compared with ketamine in FST: closely mimicked

## RQIKIWFQNRRMKWKK-AAGAGSGAVAFKGANGEA [scrambled siP, penetratin-tagged scramble control peptide]
[1]; 10 μM for 15 min, washout 25 min, maintained through 50 min following HFS, 25 °C, n = 5
  fEPSP amplitude after HFS (LTP): 0.31 ± 0.03 mV

## CN[C@H](CC(=O)O)C(=O)O [NMDA, N-methyl-D-aspartate]
[7]
  phospho-Ser114 RIIβ, NMDA: PKA-dependent phosphorylation at Ser114 was increased
[8]; striatal slices, NMDA 50 μM, 5 min, *p < 0.05, n = 4
  phospho-Thr69 RIIβ, NMDA: strongly reduced the phosphorylation state of Thr69
[8]; ventral striatal slices, low Mg2+, NMDA 25 μM, 5 min and/or dopamine 10 μM, 15 min, 30 min delay after treatment, n = 5 to 6
  phospho-Thr69 RIIβ, LTP-like conditions: decrease in phospho-Thr69 RIIβ

## C=C1[C@@H](O)[C@@H]2O[C@]3(CC[C@H](/C=C/[C@@H](C)[C@@H]4CC(C)=C[C@@]5(O[C@H](C[C@@](C)(O)C(=O)O)CC[C@H]5O)O4)O3)CC[C@H]2O[C@@H]1[C@@H](O)C[C@H](C)[C@H]1O[C@@]2(CCCCO2)CC[C@H]1C [okadaic acid]
[8]; striatal slices, 200 nM, 1 h (selective PP2A inhibition), *p < 0.05, n = 4-5
  basal phospho-Thr69 RIIβ, okadaic acid 200 nM: increased
[8]; striatal slices, 1 μM, 1 h (PP1 inhibition), **p < 0.01, n = 4-5
  basal phospho-Thr69 RIIβ, okadaic acid 1 μM: increased
[8]; striatal slices, NMDA 25 µM, 5 min, cyclosporin A 10 µM, 1 h or okadaic acid 1 µM, 1 h, n = 4-6
  effect on NMDA-induced reduction of phospho-Thr69 RIIβ: attenuated the effect of NMDA

## RQIKIWFQNRRMKWKKAGAAAGGGTPSKGVNFAEE [RIIβ siP]
[9]
  IC50: 7.14 ± 2.28 µM
